{"source": "ChEMBL document CHEMBL1201862", "about": "“PubChem BioAssay data set” (2004)", "assay_in_all_cases": "NCI anticancer screen, dose series, 48 h", "key": {"[1]": {"tested_on": "RPMI-8226"}, "[2]": {"tested_on": "RXF 393"}, "[3]": {"tested_on": "NCI-H226"}, "[4]": {"tested_on": "U-251"}, "[5]": {"tested_on": "SF-539"}, "[6]": {"tested_on": "HCT-15"}, "[7]": {"tested_on": "Hs-578T"}, "[8]": {"tested_on": "KM12"}, "[9]": {"tested_on": "NCI/ADR-RES"}, "[10]": {"tested_on": "MCF7"}, "[11]": {"tested_on": "NCI-H23"}, "[12]": {"tested_on": "SW-620"}, "[13]": {"tested_on": "IGROV-1"}, "[14]": {"tested_on": "OVCAR-4"}, "[15]": {"tested_on": "MOLT-4"}, "[16]": {"tested_on": "HT-29"}, "[17]": {"tested_on": "Malme-3M"}, "[18]": {"tested_on": "SR"}, "[19]": {"tested_on": "ACHN"}, "[20]": {"tested_on": "SNB-19"}, "[21]": {"tested_on": "DU-145"}, "[22]": {"tested_on": "BT-549"}, "[23]": {"tested_on": "MDA-N"}, "[24]": {"tested_on": "HOP-92"}, "[25]": {"tested_on": "786-0"}, "[26]": {"tested_on": "SK-MEL-5"}, "[27]": {"tested_on": "M14"}, "[28]": {"tested_on": "MDA-MB-435"}, "[29]": {"tested_on": "SN12C"}, "[30]": {"tested_on": "NCI-H522"}, "[31]": {"tested_on": "HCT-116"}, "[32]": {"tested_on": "A498"}, "[33]": {"tested_on": "CCRF-CEM"}, "[34]": {"tested_on": "MDA-MB-231"}, "[35]": {"tested_on": "PC-3"}, "[36]": {"tested_on": "OVCAR-8"}, "[37]": {"tested_on": "UO-31"}, "[38]": {"tested_on": "HL-60"}, "[39]": {"tested_on": "A549"}, "[40]": {"tested_on": "CAKI-1"}, "[41]": {"tested_on": "LOX IMVI"}, "[42]": {"tested_on": "SK-MEL-2"}, "[43]": {"tested_on": "K562"}, "[44]": {"tested_on": "UACC-257"}, "[45]": {"tested_on": "SF-268"}, "[46]": {"tested_on": "UACC-62"}, "[47]": {"tested_on": "COLO 205"}, "[48]": {"tested_on": "OVCAR-5"}, "[49]": {"tested_on": "SK-MEL-28"}, "[50]": {"tested_on": "SNB-75"}, "[51]": {"tested_on": "SF-295"}, "[52]": {"tested_on": "SK-OV-3"}, "[53]": {"tested_on": "HOP-62"}, "[54]": {"tested_on": "TK-10"}, "[55]": {"tested_on": "NCI-H460"}, "[56]": {"tested_on": "OVCAR-3"}, "[57]": {"tested_on": "HCC 2998"}, "[58]": {"tested_on": "EKVX"}}, "note": "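Test compounds were applied to cells in 96-well plates for 48 hours at 5 doses. The concentration for 50% growth inhibition is given as GI50.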 Activity calls are given as the source filed them. No stated cut-off is given here; in the data, active = GI50 up to about 1.1 µM and inactive = higher.", "data": [{"molecule": "Cc1ccc2c3c1O[C@H]1c4[nH]c5ccccc5c4C[C@@]4(O)[C@@H](C2)N(C)CC[C@]314", "values": [{"measurement": "GI50", "setting": "[1]", "result": "14.1 µM (inactive)"}, {"measurement": "GI50", "setting": "[2]", "result": "10.1 µM (inactive)"}, {"measurement": "GI50", "setting": "[3]", "result": "9.04 µM (inactive)"}, {"measurement": "GI50", "setting": "[4]", "result": "16 µM (inactive)"}, {"measurement": "GI50", "setting": "[5]", "result": "15.7 µM (inactive)"}, {"measurement": "GI50", "setting": "[6]", "result": 17.2, "unit": "µM"}, {"measurement": "GI50", "setting": "[7]", "result": "0.474 µM (active)"}, {"measurement": "GI50", "setting": "[8]", "result": "16.9 µM (inactive)"}, {"measurement": "GI50", "setting": "[9]", "result": "17.8 µM (inactive)"}, {"measurement": "GI50", "setting": "[10]", "result": "16 µM (inactive)"}, {"measurement": "GI50", "setting": "[11]", "result": "18.4 µM (inactive)"}, {"measurement": "GI50", "setting": "[12]", "result": "15 µM (inactive)"}, {"measurement": "GI50", "setting": "[13]", "result": "18 µM (inactive)"}, {"measurement": "GI50", "setting": "[14]", "result": "16.9 µM (inactive)"}, {"measurement": "GI50", "setting": "[15]", "result": "16.4 µM (inactive)"}, {"measurement": "GI50", "setting": "[16]", "result": "11.5 µM (inactive)"}, {"measurement": "GI50", "setting": "[17]", "result": "13.9 µM (inactive)"}, {"measurement": "GI50", "setting": "[18]", "result": "13.7 µM (inactive)"}, {"measurement": "GI50", "setting": "[19]", "result": "15.9 µM (inactive)"}, {"measurement": "GI50", "setting": "[20]", "result": "17.9 µM (inactive)"}, {"measurement": "GI50", "setting": "[21]", "result": "19.8 µM (inactive)"}, {"measurement": "GI50", "setting": "[22]", "result": "16.4 µM (inactive)"}, {"measurement": "GI50", "setting": "[23]", "result": "17.8 µM (inactive)"}, {"measurement": "GI50", "setting": "[24]", "result": "9.08 µM (inactive)"}, {"measurement": "GI50", "setting": "[25]", "result": "15.6 µM (inactive)"}, {"measurement": "GI50", "setting": "[26]", "result": "14.5 µM (inactive)"}, {"measurement": "GI50", "setting": "[27]", "result": "16.2 µM (inactive)"}, {"measurement": "GI50", "setting": "[28]", "result": "14.5 µM (inactive)"}, {"measurement": "GI50", "setting": "[29]", "result": "18.2 µM (inactive)"}, {"measurement": "GI50", "setting": "[30]", "result": "19.1 µM (inactive)"}, {"measurement": "GI50", "setting": "[31]", "result": "16.6 µM (inactive)"}, {"measurement": "GI50", "setting": "[32]", "result": "17 µM (inactive)"}, {"measurement": "GI50", "setting": "[33]", "result": "18.3 µM (inactive)"}, {"measurement": "GI50", "setting": "[34]", "result": "15.2 µM (inactive)"}, {"measurement": "GI50", "setting": "[35]", "result": "17.3 µM (inactive)"}, {"measurement": "GI50", "setting": "[36]", "result": "18.6 µM (inactive)"}, {"measurement": "GI50", "setting": "[37]", "result": "13.7 µM (inactive)"}, {"measurement": "GI50", "setting": "[38]", "result": "14.6 µM (inactive)"}, {"measurement": "GI50", "setting": "[39]", "result": "17 µM (inactive)"}, {"measurement": "GI50", "setting": "[40]", "result": "17.3 µM (inactive)"}, {"measurement": "GI50", "setting": "[41]", "result": "15.4 µM (inactive)"}, {"measurement": "GI50", "setting": "[42]", "result": "20.7 µM (inactive)"}, {"measurement": "GI50", "setting": "[43]", "result": "16.9 µM (inactive)"}, {"measurement": "GI50", "setting": "[44]", "result": "13.7 µM (inactive)"}, {"measurement": "GI50", "setting": "[45]", "result": "17.1 µM (inactive)"}, {"measurement": "GI50", "setting": "[46]", "result": "16.6 µM (inactive)"}, {"measurement": "GI50", "setting": "[47]", "result": "14.4 µM (inactive)"}, {"measurement": "GI50", "setting": "[48]", "result": "20.7 µM (inactive)"}]}, {"molecule": "CC(C)(C)n1c(=O)n2n(c1=O)Cc1cccc3cccc(c13)C2", "values": [{"measurement": "GI50", "setting": "[49]", "result": "21.7 µM (inactive)"}, {"measurement": "GI50", "setting": "[1]", "result": "14 µM (inactive)"}, {"measurement": "GI50", "setting": "[2]", "result": "13.9 µM (inactive)"}, {"measurement": "GI50", "setting": "[4]", "result": "15.3 µM (inactive)"}, {"measurement": "GI50", "setting": "[50]", "result": "0.834 µM (active)"}, {"measurement": "GI50", "setting": "[5]", "result": "17.2 µM (inactive)"}, {"measurement": "GI50", "setting": "[6]", "result": 18.5, "unit": "µM"}, {"measurement": "GI50", "setting": "[7]", "result": "12.2 µM (inactive)"}, {"measurement": "GI50", "setting": "[8]", "result": "14.7 µM (inactive)"}, {"measurement": "GI50", "setting": "[9]", "result": "14.4 µM (inactive)"}, {"measurement": "GI50", "setting": "[10]", "result": "22.8 µM (inactive)"}, {"measurement": "GI50", "setting": "[11]", "result": "25.6 µM (inactive)"}, {"measurement": "GI50", "setting": "[12]", "result": "17 µM (inactive)"}, {"measurement": "GI50", "setting": "[13]", "result": "11.3 µM (inactive)"}, {"measurement": "GI50", "setting": "[14]", "result": "19.6 µM (inactive)"}, {"measurement": "GI50", "setting": "[51]", "result": "17 µM (inactive)"}, {"measurement": "GI50", "setting": "[15]", "result": "14.8 µM (inactive)"}, {"measurement": "GI50", "setting": "[16]", "result": "16.7 µM (inactive)"}, {"measurement": "GI50", "setting": "[17]", "result": "14.2 µM (inactive)"}, {"measurement": "GI50", "setting": "[18]", "result": "6.7 µM (inactive)"}, {"measurement": "GI50", "setting": "[19]", "result": "20.6 µM (inactive)"}, {"measurement": "GI50", "setting": "[20]", "result": "25.6 µM (inactive)"}, {"measurement": "GI50", "setting": "[21]", "result": "35.5 µM (inactive)"}, {"measurement": "GI50", "setting": "[52]", "result": "27.1 µM (inactive)"}, {"measurement": "GI50", "setting": "[53]", "result": "14 µM (inactive)"}, {"measurement": "GI50", "setting": "[54]", "result": "29.1 µM (inactive)"}, {"measurement": "GI50", "setting": "[55]", "result": "10.7 µM (inactive)"}, {"measurement": "GI50", "setting": "[22]", "result": "31.8 µM (inactive)"}, {"measurement": "GI50", "setting": "[23]", "result": "22.1 µM (inactive)"}, {"measurement": "GI50", "setting": "[24]", "result": "28.1 µM (inactive)"}, {"measurement": "GI50", "setting": "[25]", "result": "19.5 µM (inactive)"}, {"measurement": "GI50", "setting": "[26]", "result": "19.5 µM (inactive)"}, {"measurement": "GI50", "setting": "[27]", "result": "18.4 µM (inactive)"}, {"measurement": "GI50", "setting": "[28]", "result": "23.7 µM (inactive)"}, {"measurement": "GI50", "setting": "[29]", "result": "19.3 µM (inactive)"}, {"measurement": "GI50", "setting": "[30]", "result": "2.99 µM (inactive)"}, {"measurement": "GI50", "setting": "[31]", "result": "15.1 µM (inactive)"}, {"measurement": "GI50", "setting": "[33]", "result": "4.31 µM (inactive)"}, {"measurement": "GI50", "setting": "[34]", "result": "32.6 µM (inactive)"}, {"measurement": "GI50", "setting": "[35]", "result": "13 µM (inactive)"}, {"measurement": "GI50", "setting": "[36]", "result": "17.8 µM (inactive)"}, {"measurement": "GI50", "setting": "[37]", "result": "22.1 µM (inactive)"}, {"measurement": "GI50", "setting": "[39]", "result": "26.7 µM (inactive)"}, {"measurement": "GI50", "setting": "[56]", "result": "15.4 µM (inactive)"}, {"measurement": "GI50", "setting": "[40]", "result": "15.1 µM (inactive)"}, {"measurement": "GI50", "setting": "[41]", "result": "23.8 µM (inactive)"}, {"measurement": "GI50", "setting": "[42]", "result": "17.9 µM (inactive)"}, {"measurement": "GI50", "setting": "[43]", "result": "10.3 µM (inactive)"}, {"measurement": "GI50", "setting": "[44]", "result": "22.6 µM (inactive)"}, {"measurement": "GI50", "setting": "[45]", "result": "14.5 µM (inactive)"}, {"measurement": "GI50", "setting": "[46]", "result": "24 µM (inactive)"}, {"measurement": "GI50", "setting": "[57]", "result": "21.9 µM (inactive)"}, {"measurement": "GI50", "setting": "[58]", "result": "15 µM (inactive)"}, {"measurement": "GI50", "setting": "[47]", "result": "29.5 µM (inactive)"}, {"measurement": "GI50", "setting": "[48]", "result": "17 µM (inactive)"}]}]}
